Values of other authors as cited in patent US20250032638A1, “Novel Cancer Treatments with TLR7/8 Agonists” (Ascendis Pharma Oncology Division A/S, priority 2021, published 2025).

Details: resiquimod administered orally; systemic toxicity at higher doses (Journal of Hepatology 47 (2007) 174-182)

For CCOCc1nc2c(N)nc3ccccc3c2n1CC(C)(C)O [resiquimod], the “systemic concentration that was well tolerated” value is listed as “about 4 ng/mL”.
